According to patent US9023987B2, “Cell-permeable peptide” (Seoul National University R&DB Foundation, priority 2010, dated 2015):

What was measured:
[1] = tested on: human mesenchymal stem cells (hMSC); experiment: Cell permeability by fluorescence imaging (confocal scanning microscope); assay type: cell-based; details: FITC/fluorescence-labeled, FIG. 3A, FIG. 7
Procedure: (§1) The domains synthesized in Example 1 and Comparative Examples 1 and 2 were labeled with a fluorescent material in order to measure cell permeability. 10 equivalents of fluorescein isothiocyanate (FITC) was bound to N-terminals of the synthesized domains by using triethylamine (1 ml per 1 g of resin). The synthesis of the peptide was confirmed by measuring the molecular weight thereof through MALDI-TOF.
In order to measure the cell permeability of the cell permeable peptide-bone differentiation inducing sequence conjugate, after sterile slide glass was input in a 6-well plate and 2×10^4 human mesenchymal stem cells (hMSC) were plated in each well, the cells were cultured in a general medium for 20 hours (overnight incubation). Then the cells was cultured in an hMSC basal medium (MSCBM, LONZA, USA) containing 0.5% fetal bovine serum (FBS, GIBCO, USA) for 20 hours (overnight starvation). […] fluorescence labeled cell permeable peptide-bone differentiation inducing sequence conjugate and […] fluorescence labeled bone differentiation inducing sequence that were obtained by binding FITC (SIGMA, USA) N-terminals of the cell permeable peptide-bone differentiation inducing sequence conjugate synthesized by the method in Example 1 and the domain in Comparative Example 2 to synthesize the fluorescence label conjugate and fluorescence label domain, followed by isolation and purification, were injected into each well and washed with phosphate buffer solution (PBS) two times after 20 minutes and 80 minutes of injection. The resultants was observed using a confocal scanning microscope (IX 70, Olympus Co., Tokyo, Japan).

[2] = tested on: human mesenchymal stem cells (hMSC); experiment: Cell permeability by flow cytometry; assay type: cell-based; set-up: dose or concentration left out as unconfirmed; details: FITC-labeled, relative to bone differentiation inducing sequence, FIG. 3B
Procedure: as §1
In order to quantitatively confirm the cell permeability and cell permeation degree of fluorescence labeled magnetic nanoparticle conjugates, after 1×10^5 human mesenchymal stem cells (hMSC) were plated in each well of 6-well plate, the cells were cultured in a general medium for 20 hours (overnight incubation). […] fluorescence labeled cell permeable peptide-bone differentiation inducing sequence conjugate and […] fluorescence labeled bone differentiation inducing sequence that were obtained by binding FITC (SIGMA, USA) N-terminals of the cell permeable peptide-bone differentiation inducing sequence conjugate synthesized by the method in Example 1 and the domain in Comparative Example 2 to synthesize the fluorescence label conjugate and fluorescence label domain, followed by isolation and purification, were injected into each well and washed with the phosphate buffer solution (PBS) two times after 20, 40, 60, and 80 minutes of injection. […]

[3] = tested on: Smad1/5/8 phosphorylation, RUNX2; experiment: Western blot of signal transduction proteins in cytoplasmic and nuclear fractions; assay type: cell-based, human; details: 10 μm, 1.5 hours, hMSC, compared with PBS; FIG. 4D
Procedure: In order to confirm cell differentiation ability of the cell permeable peptide-bone differentiation inducing sequence conjugate, using proteins serving an important role in signal transduction pathways in the cytoplasmic fraction and the nuclear fraction, human mesenchymal stem cells (hMSC) were seeded in each well of a 10 cm-dish at 1×10^6/well, and then incubated in a general medium for 20 hours (overnight) for cell stabilization. After 20 hours of the incubation, the cells were treated with the cell permeable peptide-bone differentiation inducing sequence conjugate and the bone differentiation inducing sequence of Comparative Example 2 of 10 μm for each for 1.5 hours.
After that, in order to compare the expression degree of intercellular protein, in each of the cells treated with the cell permeable peptide-bone differentiation inducing sequence conjugate of Example 1 and the bone differentiation inducing sequence of Comparative Example 2, cytoplasm and nucleus were separated using NE-PER nuclear and cytoplasmic extraction reagents according to the manufacturer's instructions (Pierce, USA). The protein in the hMSC lysis solution containing the separated cytoplasm and nucleus was determined by Bradford's assay, and then subjected to electrophoresis using 10% polyacrylamide gel at 120 volts for 4 hours. […]

For “NH2-GAPPPADSAP-SSRKKNPNCRRH-C-COONH2 (H-GAPPPADSAPSSRKKNPNCRRHC-NH2; cysteine pairing not given here) [Example 1]”, the “intracellular fluorescence after 20 minutes (confocal)” value ([1]; 20 minutes) was “fluorescent particles were observed in the cytoplasm”, the “intracellular fluorescence after 80 minutes (confocal)” value ([1]; 80 minutes) was “clearly observed in the cytoplasm and nucleus” and the “relative increase of fluorescence intensity (flow cytometry)” value [2] was no less than 10 times. For the same substance, the “RUNX2 in the nucleus (western blot)” value [3] was “noticeably increased RUNX2” and the “phosphorylation of Smad1/5/8 (western blot)” value [3] was “exhibited Smad 1/5/8 phosphorylation”.
